Key:
[1] = system: STAT3; experiment: STAT3 reporter gene assay (luciferase), LNCaP stable cell line pSTAT3-TA-luc, IL-6 stimulation; format: cell-based, human; conditions: Homo sapiens
Procedure, shortened: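 LNCaP cells stably carrying pSTAT3-TA-luc were plated 24 h in 3% DCC-FBS medium, then given compound followed by IL-6 (10 ng/mL final) for 24 h at 37 °C. Luciferase was read from lysates, with CellTiter-Glo viability on a duplicate plate. Stimulated 0.1% DMSO wells served as uninhibited control.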

[2] = system: STAT1; experiment: STAT1 reporter gene assay (luciferase), U2OS stable cell line pGL4-STAT1-TA-luc, IFN-γ stimulation; format: cell-based, human; conditions: Homo sapiens, IFN-γ 50 ng/mL, 8 hours, read-out: IC50 (μM) pSTAT1
Procedure, shortened: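 U2OS cells stably carrying a STAT1-driven luciferase reporter were treated with serially diluted compounds plus IFN-γ (50 ng/mL final) for 8 h at 37 °C in 10% FBS medium. Luciferase read after lysis; parallel plate assessed for cytotoxicity by CellTiter-Glo.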

[3] = system: LNCaP prostate cancer cell line; experiment: Cell growth inhibition assay, LNCaP (CellTiter-Glo); format: cell-based; conditions: Homo sapiens; LNCaP, 10,000 cells/well, medium with 10 ng/mL IL-6, 96 hours
Experimental: (§1) The inhibitory effects of the compounds of the present invention against the growth of cancer cells were evaluated as shown below. The cancer cell lines including prostate cancer cell lines (LNCaP, DU-145), stomach cancer cell line (NCI-N87), and breast cancer cell lines (MDA-MB-468) were cultured under the protocol provided by each supplier. A medium supplemented with 10 ng/mL of IL-6 was used for LNCaP, a prostate cancer cell line, when treated with a drug. Each type of cells to be used in experiments was sub-cultured in a 96-well plate by counting the exact number of cells using Tali™ Image-based Cytometer (Life Technologies). In a 96-well plate, DU-145 was employed with 3,000 cells/well; NCI-N87 was employed with 5,000 cells/well; and LNCaP and MDA-MB-468 were employed with 10,000 cells/well. The cells were treated with the compounds listed in Examples which were diluted in various concentrations. Upon completion of the compounds treatment, LNCaP, DU-145, NCI-N87 cells were cultured at 37° C. under 5% CO2 for 96 hours, and MDA-MB-468 cells were cultured at 37° C. in air for 96 hours. Subsequently, the cells were observed under microscope and drug precipitation and particular findings were investigated and recorded. And then, the 96-well plate was placed at room temperature for 30 minutes, added with 20 pt/well of CellTiter-Glo solution (Cat No. G7573, Promega) and shaken for 10 minutes, followed by being subjected to the measurement using PHERAstar™ microplate reader (BMG LABTECH) according to the supplier's general luminometer protocol. Wells where only culture liquid added without cell plating were used as a negative control, whereas wells where culture liquid containing 0.1% DMSO instead of the compounds listed in Examples were used as a positive control.

[4] = system: DU-145 prostate cancer cell line; experiment: Cell growth inhibition assay, DU-145 (CellTiter-Glo); format: cell-based; conditions: Homo sapiens; DU-145, 3,000 cells/well, 96 hours
Experimental: as §1

[5] = system: NCI-N87 stomach cancer cell line; experiment: Cell growth inhibition assay, NCI-N87 (CellTiter-Glo); format: cell-based; conditions: Homo sapiens; NCI-N87, 5,000 cells/well, 96 hours
Experimental: as §1

IC50 [1] | IC50 [2] | IC50 [3] | IC50 [4] | IC50 [5] | Structure (SMILES)
0.025 µM | > 50 µM | 0.028 µM | 0.016 µM |  | CC(C)(c1ccc2sc(C(=O)Nc3cc(Cl)cc(C4(c5ccc(Cl)cc5)CC4)c3)cc2c1)S(C)(=O)=O [Example 97, N-(3-chloro-5-(1-(4-chlorophenyl)cyclopropyl)phenyl)-5-(2-(methylsulfonyl)propan-2-yl)benzo[b]thiophene-2-carboxamide]
0.014 µM | > 50 µM | 0.01 µM | 0.008 µM |  | CC(C)(c1ccc2sc(C(=O)Nc3cc(Cl)cc(Oc4cccc(OC(F)(F)F)c4)c3)cc2c1)S(C)(=O)=O [Example 48, N-(3-chloro-5-(3-(trifluoromethoxy)phenoxy)phenyl)-5-(2-(methylsulfonyl)propan-2-yl)benzo[b]thiophene-2-carboxamide]
0.029 µM | > 50 µM | 0.043 µM | 0.022 µM |  | CC(C)(c1ccc(F)cc1)c1cc(Cl)cc(NC(=O)c2cc3cc(C(C)(C)S(C)(=O)=O)c(F)cc3s2)c1 [Example 19, N-(3-chloro-5-(2-(4-fluorophenyl)propan-2-yl)phenyl)-6-fluoro-5-(2-(methylsulfonyl)propan-2-yl)benzo[b]thiophene-2-carboxamide]
> 10 µM | > 50 µM | > 1.1 µM | > 1.1 µM |  | CC(C)(c1ccc(Cl)cc1)c1cc(NC(=O)c2cc3cc(C(C)(C)S(C)(=O)=O)ccc3s2)n(C(C)(C)C)n1 [Example 88, N-(1-(tert-butyl)-3-(2-(4-chlorophenyl)propan-2-yl)-1H-pyrazol-5-yl)-5-(2-(methylsulfonyl)propan-2-yl)benzo[b]thiophene-2-carboxamide]
0.11 µM | > 50 µM | 0.14 µM | 0.046 µM |  | CN(c1ccc(Cl)cc1)c1cc(Cl)cc(NC(=O)c2cc3cc(C(C)(C)S(C)(=O)=O)ccc3s2)c1 [Example 99, N-(3-chloro-5-((4-chlorophenyl)(methyl)amino)phenyl)-5-(2-(methylsulfonyl)propan-2-yl)benzo[b]thiophene-2-carboxamide]
8.7 µM | > 50 µM | > 1.1 µM | > 1.1 µM |  | CC(C)(c1ccc(Cl)cc1)c1cc(Cl)cc(NC(=O)c2cc3cc(C4(S(C)(=O)=O)CCOCC4)ccc3s2)c1 [Example 34, N-(3-chloro-5-(2-(4-chlorophenyl)propan-2-yl)phenyl)-5-(4-(methylsulfonyl)tetrahydro-2H-pyran-4-yl)benzo[b]thiophene-2-carboxamide]
0.0083 µM | > 50 µM |  |  | 0.01 µM | C=CCOc1cc(OC(F)(F)F)cc(C(C)(C)c2cc(Cl)cc(NC(=O)c3cc4cc(C(C)(C)S(C)(=O)=O)ccc4s3)c2)c1 [Example 14, N-(3-(2-(3-(allyloxy)-5-(trifluoromethoxy)phenyl)propan-2-yl)-5-chlorophenyl)-5-(2-(methylsulfonyl)propan-2-yl)benzo[b]thiophene-2-carboxamide]
0.00065 µM | > 50 µM |  |  | 0.02 µM | CC(C)Oc1cc(OC(F)(F)F)cc(C(C)(C)c2cc(Br)cc(NC(=O)c3cc4cc(C(C)(C)S(C)(=O)=O)ccc4s3)c2)c1 [Example 9, N-(3-bromo-5-(2-(3-isopropoxy-5-(trifluoromethoxy)phenyl)propan-2-yl)phenyl)-5-(2-(methylsulfonyl)propan-2-yl)benzo[b]thiophene-2-carboxamide]
0.049 µM | > 50 µM |  |  | 0.087 µM | CC(C)(C)C1CCN(c2cc(NC(=O)c3cc4cc(C(C)(C)S(C)(=O)=O)ccc4s3)cc(Cl)n2)CC1 [Example 105, N-(2-(4-(tert-butyl)piperidin-1-yl)-6-chloropyridin-4-yl)-5-(2-(methylsulfonyl)propan-2-yl)benzo[b]thiophene-2-carboxamide]
0.027 µM | > 50 µM |  |  | 0.2 µM | COCCS(=O)(=O)C(C)(C)c1ccc2sc(C(=O)Nc3cc(Cl)cc(Oc4ccc(Cl)cc4)c3)cc2c1 [Example 57, N-(3-chloro-5-(4-chlorophenoxy)phenyl)-5-(2-((2-methoxyethyl)sulfonyl)propan-2-yl)benzo[b]thiophene-2-carboxamide]
0.0025 µM | > 50 µM |  |  | 0.24 µM | Cn1cccc1C(C)(C)c1cc(Cl)cc(NC(=O)c2cc3cc(C(C)(C)S(C)(=O)=O)ccc3s2)c1 [Example 31, N-(3-chloro-5-(2-(1-methyl-1H-pyrrol-2-yl)propan-2-yl)phenyl)-5-(2-(methylsulfonyl)propan-2-yl)benzo[b]thiophene-2-carboxamide]
0.01 µM | > 50 µM |  |  | 0.028 µM | CC(C)(c1cc(Cl)cc(NC(=O)c2cc3cc(C(C)(C)S(C)(=O)=O)ccc3s2)c1)c1cc(OCC(F)F)cc(OC(F)(F)F)c1 [Example 13, N-(3-chloro-5-(2-(3-(2,2-difluoroethoxy)-5-(trifluoromethoxy)phenyl)propan-2-yl)phenyl)-5-(2-(methylsulfonyl)propan-2-yl)benzo[b]thiophene-2-carboxamide]
0.011 µM | > 50 µM |  |  | 0.03 µM | CC(C)(c1ccc2sc(C(=O)Nc3cc(Cl)nc(Oc4ccc(F)cc4)c3)cc2c1)S(C)(=O)=O [Example 68, N-(2-chloro-6-(4-fluorophenoxy)pyridin-4-yl)-5-(2-(methylsulfonyl)propan-2-yl)benzo[b]thiophene-2-carboxamide]
0.12 µM | > 50 µM |  |  | 0.61 µM | O=C(Nc1cc(Cl)nc(Oc2ccc(Cl)cc2)c1)c1cc2cc(C3CCCCS3(=O)=O)ccc2s1 (stereo not drawn) [Example 74, N-(2-chloro-6-(4-chlorophenoxy)pyridin-4-yl)-5-(1,1-dioxidotetrahydro-2H-thiopyran-2-yl)benzo[b]thiophene-2-carboxamide]
0.19 µM | > 50 µM |  |  | 1.5 µM | CC(C)(c1ccc2sc(C(=O)N3CCOc4c(Cl)cc(Oc5ccc(Cl)cc5)cc43)cc2c1)S(C)(=O)=O [Example 96, (8-chloro-6-(4-chlorophenoxy)-2,3-dihydro-4H-benzo[b][1,4]oxazin-4-yl)(5-(2-(methylsulfonyl)propan-2-yl)benzo[b]thiophen-2-yl)methanone]
0.1 µM | > 50 µM |  |  | 0.052 µM | CC(C)(c1ccc2sc(C(=O)Nc3cc(F)nc(Oc4ccc(Cl)cc4)c3)cc2c1)S(C)(=O)=O [Example 77, N-(2-(4-chlorophenoxy)-6-fluoropyridin-4-yl)-5-(2-(methylsulfonyl)propan-2-yl)benzo[b]thiophene-2-carboxamide]
0.43 µM | 8.5 µM |  |  | 1.8 µM | CC(C)(c1ccc2sc(C(=O)Nc3cc(Cl)nc(N4CCN5CCCCC5C4)c3)cc2c1)S(C)(=O)=O (stereo not drawn) [Example 106, N-(2-chloro-6-(octahydro-2H-pyrido[1,2-a]pyrazin-2-yl)pyridin-4-yl)-5-(2-(methylsulfonyl)propan-2-yl)benzo[b]thiophene-2-carboxamide]

Structure (SMILES) | IC50 [1] | IC50 [2] | IC50 [3] | IC50 [4] | IC50 [5]
CC(C)COc1cc(OC(F)(F)F)cc(C(C)(C)c2cc(Cl)cc(NC(=O)c3cc4cc(C(C)(C)S(C)(=O)=O)ccc4s3)c2)c1 [Example 11, N-(3-chloro-5-(2-(3-isobutoxy-5-(trifluoromethoxy)phenyl)propan-2-yl)phenyl)-5-(2-(methylsulfonyl)propan-2-yl)benzo[b]thiophene-2-carboxamide] | 0.0021 µM | > 50 µM |  |  | 0.011 µM
